What is called AUC(0-inf) is the area under the concentration-time curve extrapolated to infinity.

The series is described as follows: Oral bioavailability in Beagle dogs (plasma concentration of relebactam). To be noted: male Beagle dogs, IV bolus, mean. The series is classed as in vivo. As to the method: The oral bioavailability of certain relebactam prodrugs provided by the present disclosure in Beagle dogs was evaluated.
Dosing formulations are prepared on the day of dosing. Intravenous formulations are prepared under aseptic conditions, sterile filtered, and brought to room temperature prior to dosing. The intravenous formulation included relebactam at a final concentration of 2.8 mg/mL in PBS at pH 7.5.
The formulations were administered to male Beagle dogs weighing about 10 kg. The animals were maintained in accordance with the Guide for the Care and Use of Laboratory Animals, National Research Council, The National Academies Press, Washington, DC, 2011.
The dogs received either an IV bolus dose of 9.9 mg/kg, or a peroral dose of 22 mg/kg (Compound 87) or 20.0 mg/kg (Compound 88). […]
The plasma concentration of relebactam was measured at intervals following administration. […] The relebactam concentration was determined using LC/MS/MS.
The area under the concentration vs. time curves (AUC) was calculated using the linear/log trapezoidal method with linear interpolation. The percent oral bioavailability (% F) of relebactam was determined by comparing the AUC following oral administration with the AUC following IV administration on a dose normalized basis.

On to `O=C(NC1CCNCC1)[C@@H]1CC[C@@H]2CN1C(=O)N2OS(=O)(=O)O` [relebactam], for which the AUC(0-inf) (dog, nominal dose 10.0 mg/kg (administered 9.88 mg/kg)) was 29400 ng·h/mL. Also, the AUC0-inf/D (relebactam-equivalent dose 9.88 mg/kg) was found to be 2974.

The values above are taken from patent US11180500B2, “Derivatives of relebactam and uses thereof” (ARIXA PHARMACEUTICALS, INC., priority 2018, dated 2021).
